Earlier results, collected in patent US8623415B2, “Method for producing biologically ingestible microparticles, biologically ingestible microparticles, and dispersion and pharmaceutical composition containing the same” (M. Technique Co., Ltd., priority 2007, dated 2014).
Like-named read-outs stand apart in the source and are kept apart here.

Tests used:
[1] = dissolved in an aqueous solution of pH 6 or higher

Compound	biological availability (BA) (commercial product (average particle diameter 10 μm) administered to a dog as a suspension) [%]	biological availability (BA) (nano-suspension, average particle diameter 169 nm, dog) [%]	stability in aqueous solution [1]
C#C[C@]1(O)CC[C@H]2[C@@H]3CCC4=Cc5oncc5C[C@]4(C)[C@H]3CC[C@@]21C [danazol, 17-α-pregno-2,4-diene-20-ino-[2,3-d]-isoxazol-17-ol (danazol)]	5.1	82.3	
O=C(O)c1cc(O)c2c3nc4ccccc4oc-3cc(=O)c2n1 [pirenoxine]			hydrolyzed
